In assay [1] the target is T1, rat P2X3 receptor (Rattus norvegicus, UniProt P49654).
T1 construct: expressed in transfected cells; host or cells: CHO-K1
T1 sequence (P49654 1-397): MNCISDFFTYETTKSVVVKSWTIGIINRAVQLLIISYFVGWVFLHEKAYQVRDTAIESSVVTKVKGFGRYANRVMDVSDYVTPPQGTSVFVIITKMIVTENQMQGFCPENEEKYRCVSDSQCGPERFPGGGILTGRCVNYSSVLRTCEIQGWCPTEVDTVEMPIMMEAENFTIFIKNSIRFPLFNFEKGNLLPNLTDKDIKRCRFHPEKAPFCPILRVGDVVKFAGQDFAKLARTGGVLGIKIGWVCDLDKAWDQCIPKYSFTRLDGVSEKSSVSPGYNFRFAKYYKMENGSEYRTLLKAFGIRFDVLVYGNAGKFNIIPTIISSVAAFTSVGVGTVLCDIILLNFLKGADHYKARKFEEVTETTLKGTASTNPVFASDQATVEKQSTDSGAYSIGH
Nature of the assay: P2X3 FLIPR (Fluorometric Imaging Plate Reader) assay. It counts as cell-based. Particulars: CHO-K1 cells transfected with cloned rat P2X3; agonist α,β-meATP 1 μM; Fluo-3 AM fluorescence; read-out: pIC50 for the P2X3 receptor (converted). Here is the method:
(§1) CHO-K1 cells were transfected with cloned rat P2X3 or human P2X2/3 receptor subunits and passaged in flasks. 18-24 hours before the FLIPR experiment, cells were released from their flasks, centrifuged, and resuspended in nutrient medium at 2.5×10^5 cells/ml. The cells were aliquoted into black-walled 96-well plates at a density of 50,000 cells/well and incubated overnight in 5% CO2 at 37° C. On the day of the experiment, cells were washed in FLIPR buffer (calcium- and magnesium-free Hank's balanced salt solution, 10 mM HEPES, 2 mM CaCl2, 2.5 mM probenecid; FB). Each well received 100 μl FB and 100 μl of the fluorescent dye Fluo-3 AM [2 μM final conc.]. […]
(§2) Test compounds (dissolved in DMSO at 10 mM and serially diluted with FB) or vehicle were added to each well (25 μl of a 4× solution) and allowed to equilibrate for 20 minutes at room temperature. The plates were then placed in the FLIPR and a baseline fluorescence measurement (excitation at 488 nm and emission at 510-570 nm) was obtained for 10 seconds before a 100 μl/well agonist or vehicle addition. […] Fluorescence was measured for an additional 2 minutes at 1 second intervals after agonist addition. A final addition of ionomycin (5 μM, final concentration) was made to each well of the FLIPR test plate to establish cell viability and maximum fluorescence of dye-bound cytosolic calcium. […]

Assay [2] has as its target T2, human P2X2/3 receptor (Homo sapiens, UniProt P56373+Q9UBL9).
T2 construct: expressed in transfected cells; host or cells: CHO-K1
T2 sequence (Q9UBL9 1-471): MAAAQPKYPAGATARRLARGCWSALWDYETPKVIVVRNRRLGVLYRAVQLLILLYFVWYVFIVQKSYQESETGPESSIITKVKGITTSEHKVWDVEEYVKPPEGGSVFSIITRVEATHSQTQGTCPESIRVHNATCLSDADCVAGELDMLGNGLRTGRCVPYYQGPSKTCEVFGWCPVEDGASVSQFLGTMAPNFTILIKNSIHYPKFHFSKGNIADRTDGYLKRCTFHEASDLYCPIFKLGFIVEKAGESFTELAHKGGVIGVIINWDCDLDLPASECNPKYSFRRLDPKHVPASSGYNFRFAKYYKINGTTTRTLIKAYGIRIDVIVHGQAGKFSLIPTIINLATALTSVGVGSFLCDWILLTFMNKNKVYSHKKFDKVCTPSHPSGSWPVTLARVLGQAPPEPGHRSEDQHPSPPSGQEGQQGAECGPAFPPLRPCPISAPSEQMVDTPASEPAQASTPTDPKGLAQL
T2 sequence (P56373 1-397): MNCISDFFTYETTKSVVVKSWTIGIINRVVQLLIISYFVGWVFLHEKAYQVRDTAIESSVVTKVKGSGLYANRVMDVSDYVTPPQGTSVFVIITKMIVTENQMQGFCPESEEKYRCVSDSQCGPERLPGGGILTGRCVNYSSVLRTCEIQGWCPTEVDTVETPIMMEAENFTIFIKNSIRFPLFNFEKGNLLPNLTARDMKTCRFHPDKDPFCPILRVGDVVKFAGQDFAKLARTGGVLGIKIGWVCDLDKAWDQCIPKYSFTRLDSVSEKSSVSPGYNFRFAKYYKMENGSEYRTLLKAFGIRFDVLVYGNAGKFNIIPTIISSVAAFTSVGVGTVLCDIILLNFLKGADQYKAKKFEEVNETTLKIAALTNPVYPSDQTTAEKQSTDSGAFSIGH
Nature of the assay: P2X2/3 FLIPR (Fluorometric Imaging Plate Reader) assay. It counts as cell-based. Particulars: CHO-K1 cells transfected with human P2X2/3; agonist α,β-meATP 5 μM; Fluo-3 AM fluorescence; read-out: pKi for the P2X2/3 receptor (converted). The protocol:
as §1, §2

Experimental findings from patent US9896439B2, “Pyrazole-substituted arylamides as P2X3 and P2X2/3 antagonists” (Roche Palo Alto LLC, priority 2007, dated 2018) are described below.

Structures are written as SMILES.

For `Cc1ccc(-c2cc(C(=O)N[C@@H](C)CO)cc(-c3ccnn3C3CCC3)c2)nc1` [Compound 70, 3-(2-Cyclobutyl-2H-pyrazol-3-yl)-N-((S)-2-hydroxy-1-methyl-ethyl)-5-(5-methyl-pyridin-2-yl)-benzamide], the IC50 in assay [1] is ~2.14 nM.
With `Cc1ccc(-c2cc(C(=O)NCc3ccc(C)nn3)cc(-n3nccc3CC(C)C)c2)nc1` [Compound 101, 3-(5-Isobutyl-pyrazol-1-yl)-N-(6-methyl-pyridazin-3-ylmethyl)-5-(5-methyl-pyridin-2-yl)-benzamide], the Ki in assay [2] is ~21.4 nM.
